Assay results published in patent US20240034929A1, “SCINTILLATION MATERIALS AND METHODS” (Florida State University Research Foundation, Inc., priority 2022, published 2024).

Test: Thermogravimetric analysis (thermal stability)
Type: physicochemical
Conditions: heated from room temperature to 700° C. at 5° C./min under argon flux
Excerpt: More detailed crystallographic results are provided in FIGS. 17a and 17b and the table in FIG. 7. The 0D structure at the molecular level was clearly observed in (TPA-P)2ZnBr4 with ZnBr4^2− tetrahedrons completely isolated and surrounded by TPA-P^+ cations. The zinc center adopted a typical tetra-coordinated geometry bonded to the bromide ions, with an average Zn—Br bond length of 2.41 Å and bond angle of 109.740 (see also the table in FIG. 8).
Thermal Stability Analysis: TGA studies were done using a TA instruments Q600 system. The sample was heated from room temperature to 700° C. at a 5° C./min rate under an argon flux of 100 ml/min.

- onset weight loss (thermogravimetric analysis): 211 °C
SMILES: CCC[n+]1ccc(-c2ccc(N(c3ccccc3)c3ccccc3)cc2)cc1.[Br-] [TPA-PBr, 4-(4-(diphenylamino)phenyl)-1-(Propyl)-pyrindin-lium bromide]
